Values joined by “and” are separate entries in the source; they are usually repeats but may differ in a detail not shown here. Equal entries are not always repeated. “Also recorded” adds a separate entry of the source. Structures can show the parent of a compound that is named as a salt. Where two headings read alike, the source gives them in different places.
Columns and labels:
carrageenin oedema = carrageenin oedema test in the rat, oral administration; format: in vivo; conditions: for % change of increase of original volume, 1 h / % change of increase of original volume, 2 h / % change of increase of original volume, 3 h / % change of increase of original volume, 4 h / % change of increase of original volume, 5 h: vs controls
Experimental: (§1) The anti-inflammatory and analgesic activity of compound Ib was tested after oral administration in the carrageenin oedema test in the rat (C. A. Winter et al. Proc. Soc. Exp. Biol. Med., 111, 544, 1962), in the phenylquinone writhing test (I. C. Hendershot and J. J. Forsaith, Pharmacol. Exp. Ther., 125, 237, 1959) and in the hot plate test on the mouse (N. B. Eddy and D. J. Leimbach, J. Pharmacol. Exp. Ther., 107, 385, 1953). The activity of the compound was compared with equimolecular doses of sodium meclofenamate. A comparison was also made between the acute toxicity of the two substances by measuring the oral LD 50 on the rat.
The substances under test, dissolved in distilled water, were administered by a stomach probe 1 hour before subplantar injection of carrageenin (1% in sterile 0.9% NaCl aqueous solution). […]

[1] = acute toxicity on the rat, oral LD50; format: in vivo; conditions: rat, in vivo, po
Experimental: as §1
(§2) The two LD 50 values were calculated by the probit method.

rat = assay: acute toxicity on the rat, oral LD50; format: in vivo
Experimental: as §1, §2

[2] = test system: 6-day old air pouch irritated by carrageenan; assay: irritation of 6-day old air pouch by carrageenan in the rat; format: in vivo
Experimental: (2) Irritation of 6-day old air pouch by carrageenan in the rat (A. D. Sedgwick, Y. M. Sin, A. R. Mackay, A. Al-Duaij and D. A. Willoughby; J. Pharm. Pharmacol.; 36, 171, 1984).
The formation of a dorsal pouch was induced in the rat by dorsal subcutaneous administration of 20 ml of air. 10 ml of air were then injected every day for three consecutive days in order to keep the cavity permeable. Six days after the first injection of air, the dorsal pouch in the animals was treated with 1 ml of 1% carrageenan in physiological solution.
Compound Ib was administered by gastric probe, 24 hours and 1 hour before administration of the irritating agent.
The animals, dividedinto groups of five, were killed 4 hours and 24 hours after the carrageenan. The volume of the exudate and the total number of leucocytes were measured.

[3] = test system: writhing induced by phenylquinone; assay: phenylquinone writhing test, oral administration; format: in vivo, mouse
Experimental: as §1
The substances under test were administered by a stomach probe 1 hour before intraperitoneal injection of phenylquinone (2 mg/kg). The abdominal contractions of the treated animals and the controls were counted during every 10 minutes for half an hour.

arachidonic acid oedema = arachidonic acid oedema in the rat, oral administration; format: in vivo; conditions: for change of Increase of Original Volume (in parentheses), 60 min: vs controls
Experimental: (1) Arachidonic acid oedema in the rat (M. J. Di Martino, G. C. Campbell Jnr., C. E. Wolff and N. Hanna, Agents and Actions; 21, 303, 1987)
Compound Ib was administered by gastric probe one hour before subplantar injection of 0.1 ml of 0.5% arachidonic acid in carbonate buffer (pH 8-8.2).
The volume of the paws of the treated animals and of the control was measured with a plethysmometer immediately and 60 minutes after the irritating agent (peak time of oedema).

[4] = test system: reaction time to heat (hot plate); format: in vivo, mouse; conditions: oral; for Percentages of mice protected at 30 minutes / Percentages of mice protected at 60 minutes: reaction time 15 seconds or more, 55° C.
Experimental: as §1
The substances under test were administered by a stomach probe to preselected mice. The controls and the treated animals were placed on the hot plate (55° C.) one at a time immediately after treatment. The reaction time to heat, was measured 30 and 60 minutes after treatment. Animals were considered protected when the reaction time was 15 seconds or more.

pH of aqueous solution = format: physicochemical
[5] = rat, oral, dose corresponding to 10 mg/kg meclofenamic acid (Ib 12.7 mg/kg; sodium meclofenamate 11.0 mg/kg)
[6] = rat, oral, dose corresponding to 10 mg/kg meclofenamic acid
[7] = rat, oral, dose corresponding to 20 mg/kg meclofenamic acid (Ib 25,4 mg/kg; sodium meclofenamate 22,0 mg/kg), **P < 0.01 vs controls
[8] = rat, oral, dose corresponding to 20 mg/kg meclofenamic acid
[9] = os, Ib 31.75 mg/kg × 2 (**P < 0.01), sodium meclofenamate 27.5 mg/kg × 2 (*P < 0.05 vs controls), 24 h
[10] = os, Ib 31.75 mg/kg × 2, sodium meclofenamate 27.5 mg/kg × 2, 4 h, vs controls
[11] = os, Ib 31.75 mg/kg × 2, sodium meclofenamate 27.5 mg/kg × 2, 24 h, vs controls
[12] = oral, Ib 12.7 mg/kg, sodium meclofenamate 11.0 mg/kg
[13] = oral, Ib 25.4 mg/kg, sodium meclofenamate 22.0 mg/kg
[14] = oral, dose corresponding to 10 mg/kg meclofenamic acid (Ib 12.7 mg/kg; sodium meclofenamate 11.0 mg/kg)
[15] = oral, dose corresponding to 10 mg/kg meclofenamic acid (Ib 12.7 mg/kg; sodium meclofenamate 11.0 mg/kg), **P < 0.01 vs controls
[16] = oral, dose corresponding to 20 mg/kg meclofenamic acid (Ib 25.4 mg/kg; sodium meclofenamate 22.0 mg/kg), **P < 0.01 vs controls
[17] = Ib 12.7 mg/kg, sodium meclofenamate 11 mg/kg
[18] = Ib 25.4 mg/kg, sodium meclofenamate 22 mg/kg

Cc1ccc(Cl)c(Nc2ccccc2C(=O)OCC(=O)O)c1Cl [Ib, sodium salt (Ib) of 2-[(2,6-dichloro-3-methylphenyl)-amino]benzoyloxyacetic acid]
significance of Ib vs. sodium meclofenamate (carrageenin oedema; Duncan test): Not significant
Increase of original volume (m ± s.e.), 1 h (carrageenin oedema; [5]): 0.44 ± 0.3 mL
Increase of original volume (m ± s.e.), 2 h (carrageenin oedema; [5]): 0.81 ± 0.07 mL
Increase of original volume (m ± s.e.), 3 h (carrageenin oedema; [5]): 1.23 ± 0.06 mL
Increase of original volume (m ± s.e.), 4 h (carrageenin oedema; [5]): 1.39 ± 0.06 mL
Increase of original volume (m ± s.e.), 5 h (carrageenin oedema; [5]): 1.10 ± 0.08 mL
% change of increase of original volume, 1 h (carrageenin oedema; [6]): -6%
% change of increase of original volume, 2 h (carrageenin oedema; [6]): -15%
% change of increase of original volume, 3 h (carrageenin oedema; [6]): -20%
% change of increase of original volume, 4 h (carrageenin oedema; [6]): -8%
% change of increase of original volume, 5 h (carrageenin oedema; [6]): -10%
Increase of original volume (m ± s.e.), 1 h (carrageenin oedema; rat, oral, dose corresponding to 20 mg/kg meclofenamic acid (Ib 25,4 mg/kg; sodium meclofenamate 22,0 mg/kg)): 0.35 ± 0.05 mL
Increase of original volume (m ± s.e.), 2 h (carrageenin oedema; rat, oral, dose corresponding to 20 mg/kg meclofenamic acid (Ib 25,4 mg/kg; sodium meclofenamate 22,0 mg/kg), *P < 0.05): 0.62 ± 0.07 mL
Increase of original volume (m ± s.e.), 3 h (carrageenin oedema; [7]): 0.78 ± 0.07 mL
Increase of original volume (m ± s.e.), 4 h (carrageenin oedema; [7]): 1.11 ± 0.08 mL
Increase of original volume (m ± s.e.), 5 h (carrageenin oedema; [7]): 1.22 ± 0.08 mL
% change of increase of original volume, 1 h (carrageenin oedema; [8]): -22%
% change of increase of original volume, 2 h (carrageenin oedema; [8]): -35%
% change of increase of original volume, 3 h (carrageenin oedema; [8]): -42%
% change of increase of original volume, 4 h (carrageenin oedema; [8]): -31%
% change of increase of original volume, 5 h (carrageenin oedema; [8]): -26%
anti-inflammatory activity compared with reference (in words) (carrageenin oedema; rat, oral, vs sodium meclofenamate): had the anti-inflammatory and analgesic properties of the reference compound; also recorded: behaved in similar manner
minimal effective dose (carrageenin oedema; rat, oral, read-out: dose at which antagonism of the oedema is statistically significant): 68 µmol/kg
LD50 at 480 h ([1]; male and female rats, 20 days of observation, probit method, read-out: DL50): 271 mg/kg
LD50 at 480 h ([1]; mg/kg meclofenamic acid, read-out: LD50 as corresponding meclofenamic acid): 213 mg/kg
PR (rat; oral LD50, Ib and sodium meclofenamate, rat): 1.935 (1.191-3.586)
Slope (rat; oral LD50, probit method): 2.553 ± 0.6302
acute toxicity compared with sodium meclofenamate (in words) (rat; rat, oral LD50): less toxic than sodium meclofenamate, to a statistically significant extent
Leucocytes (m ± s.e.), 24 h [2, 9]: 16.08 ± 6.85 × 10^6
Volume of exudate (m ± s.e.), 24 h [2, 9]: 0.26 ± 0.06 mL
Leucocytes (m ± s.e.), 4 h ([2]; os, Ib 31.75 mg/kg × 2 (*P < 0.05 vs controls), sodium meclofenamate 27.5 mg/kg × 2, 4 h): 1.08 ± 0.19 × 10^6
change of leucocytes (in parentheses), 4 h [2, 10]: -76
change of volume of exudate (in parentheses), 4 h [2, 10]: -25
change of leucocytes (in parentheses), 24 h [2, 11]: -81
change of volume of exudate (in parentheses), 24 h [2, 11]: -71
Volume of exudate (m ± s.e.), 4 h ([2]; os, dose corresponding to 25 mg/kg meclofenamic acid × 2 (Ib 31.75; sodium meclofenamate 27.5 mg/kg), 4 h): 0.24 ± 0.02 mL
activity relative to the reference compound in inhibiting volume of exudate and total content of leucocytes ([2]; rat, oral, equimolar doses (in meclofenamic acid)): about twice as active as the reference compound
significance of Ib vs. sodium meclofenamate ([3]; Duncan test): Not significant
% Protection, 0-10 minutes [3, 12]: 41%
% Protection, 10-20 minutes [3, 12]: 19%
% Protection, 20-30 minutes [3, 12]: 31%
% Protection, total [3, 12]: 31%
% Protection, 0-10 minutes [3, 13]: 54%
% Protection, 10-20 minutes [3, 13]: 41%
% Protection, 20-30 minutes [3, 13]: 50%
% Protection, total [3, 13]: 48%
Writhing (m ± s.e.) during 10-20 minutes [3, 14]: 16.6 ± 1.5
Writhing (m ± s.e.) during 20-30 minutes [3, 14]: 9.8 ± 1.0
Writhing (m ± s.e.) during 0-10 minutes [3, 15]: 14.8 ± 2.9
Writhing (m ± s.e.), total minutes [3, 15]: 41.2 ± 4.1
Writhing (m ± s.e.) during 10-20 minutes ([3]; oral, dose corresponding to 20 mg/kg meclofenamic acid (Ib 25.4 mg/kg; sodium meclofenamate 22.0 mg/kg)): 12.1 ± 2.3
Writhing (m ± s.e.) during 0-10 minutes [3, 16]: 11.6 ± 2.5
Writhing (m ± s.e.) during 20-30 minutes [3, 16]: 7.2 ± 1.4
Writhing (m ± s.e.), total minutes [3, 16]: 30.9 ± 5.8
analgesic activity compared with reference (in words) ([3]; oral, vs sodium meclofenamate, both doses): had the anti-inflammatory and analgesic properties of the reference compound; also recorded: comparable with that of sodium meclofenamate
change of Increase of Original Volume (in parentheses), 60 min (arachidonic acid oedema; [17]): -15
change of Increase of Original Volume (in parentheses), 60 min (arachidonic acid oedema; Ib 38.1 mg/kg, sodium meclofenamate 33 mg/kg): -40
Increase of Original Volume (m ± s.e.), 60 min (arachidonic acid oedema; dose corresponding to 10 mg/kg meclofenamic acid (Ib 12.7 mg/kg; sodium meclofenamate 11 mg/kg)): 0.53 ± 0.04
Increase of Original Volume (m ± s.e.), 60 min (arachidonic acid oedema; dose corresponding to 30 mg/kg meclofenamic acid (Ib 38.1 mg/kg, **P < 0.01; sodium meclofenamate 33 mg/kg, *P < 0.05 vs controls)): 0.37 ± 0.05
activity relative to sodium meclofenamate (arachidonic acid oedema; rat): about twice as active as sodium meclofenamate
statistically significant dose as fraction of the LD50 (arachidonic acid oedema; rat, oedema reduced in statistically significant manner): 1/7
activity in the hot plate test (in words) ([4]; mouse): some activity; also recorded: slight analgesic activity after 30 minutes
Percentages of mice protected at 30 minutes [4, 17]: 0%
Percentages of mice protected at 60 minutes [4, 17]: 0%
Percentages of mice protected at 30 minutes [4, 18]: 20%
Percentages of mice protected at 60 minutes [4, 18]: 0%
pH in 1% aqueous solution (pH of aqueous solution; 1% aqueous solution): 6.9 and 7.1
pH of aqueous solution (in words) (pH of aqueous solution; 1% aqueous solution (Ib)): practically neutral pH
